Source: patent US20060160146A1, “Method of screening compound affecting amyloid beta production” (OTSUKA PHARMACEUTICAL CO., LTD., priority 2002, published 2006)

What was measured:
α-secretase = α-secretase cleavage product (sAPPα) in culture supernatant of COS7 cells transiently expressing mutated APP, Western blotting; assay type: cell-based, monkey; parameters: key to α-cleavage: ↓: indicates a reduced amount of secretase cleavage product; →: indicates an unchanged amount of each secretase cleavage product; ↑: indicates an increased amount of secretase cleavage product; 0: indicates no detection of each secretase cleavage product; conditions: for α-cleavage: amount of sAPPα versus wild-type APP, 48 hours after transfection; for amount of α-secretase cleavage product: in words, versus wild-type APP
Source text: (§1) BE11-hAPP695 was used as a starting material which was produced by adding a BE11 epitope tag immediately after a signal peptide of the N-terminus of a human-type APP gene (FIG. 2) and incorporating it into a vector. With respect to the amino acid at the N-treminus of the α-secretase cleavage site of APP695 (lysine at position 16 of β-amyloid) or the amino acid at the C-terminus (leucine at position 17 of β-amyloid), tryptophan was introduced into position 16 and alanine, glutamic acid, lysine, proline, glutamine, and threonine were introduced into position 17 by the site-directed mutagenesis (QuickChange, Stratagene). A construct was produced in which these mutated APPs and wild-type APPs are respectively incorporated into a pCIneo mammalian expression vector (Promega), and the construct was then transfected to a COS7 cell by a liposome method (DOTAP, Boeringer Manheim), to achieve transient expression. Forty-eight hours after transfection, the cell and culture supernatant were collected, and the expressed proteins and the processing were analyzed by 8% SDS-PAGE/Western blotting. The expression of a cell membrane-associated full-length APP confirmed using the monoclonal antibody (Mab BE11) against BE11. The expression level was standardized, and then α-secretase cleavage products (sAPPα) and β-secretase cleavage products (sAPPβ) which were secreted in the culture supernatant (medium) were detected and quantified using a specific antibody against the respective products.

β-secretase = β-secretase cleavage product (sAPPβ) in culture supernatant of COS7 cells transiently expressing mutated APP, Western blotting; assay type: cell-based, monkey; parameters: key to β-cleavage: ↓: indicates a reduced amount of secretase cleavage product; →: indicates an unchanged amount of each secretase cleavage product; ↑: indicates an increased amount of secretase cleavage product; 0: indicates no detection of each secretase cleavage product; conditions: for β-cleavage: amount of sAPPβ versus wild-type APP, 48 hours after transfection
Source text: as §1

Substance	α-cleavage (α-secretase)	amount of α-secretase cleavage product (α-secretase)	β-cleavage (β-secretase)	amount of β-secretase cleavage product (β-secretase; in words, versus wild-type APP)
Ala (position 17): human APP695 modified protein, leucine at position 17 of β-amyloid replaced with alanine	↓	decreased	→	
Glu (position 17): human APP695 modified protein, leucine at position 17 of β-amyloid replaced with glutamic acid	0	No α-secretase cleavage product was detected	→	
Lys (position 17): human APP695 modified protein, leucine at position 17 of β-amyloid replaced with lysine	↓↓	decreased	↑	slightly increased
Pro (position 17): human APP695 modified protein, leucine at position 17 of β-amyloid replaced with proline	0	No α-secretase cleavage product was detected	→	
Trp (position 16): human APP695 modified protein, lysine at position 16 of β-amyloid replaced with tryptophan	↓↓	sharply decreased	→	
